The target of the experiment is T1, MD-2 (measured as TLR4/MD-2 complex) (Homo sapiens, UniProt Q9Y6Y9).
T1 construct: gene LY96; recombinant human TLR4/MD-2; His-Flag TLR4/MD-2 protein; with TLR4
In words: SPR (Biacore T200, CM5 chip, immobilised TLR4/MD-2 complex). The experiment is classed as binding.

T1 sequence (Q9Y6Y9 19-160): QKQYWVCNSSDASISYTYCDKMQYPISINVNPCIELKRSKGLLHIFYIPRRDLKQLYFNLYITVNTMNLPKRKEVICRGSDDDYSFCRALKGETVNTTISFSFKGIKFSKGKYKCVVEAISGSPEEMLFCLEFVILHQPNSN
T1 sequence (O00206 24-839 partner): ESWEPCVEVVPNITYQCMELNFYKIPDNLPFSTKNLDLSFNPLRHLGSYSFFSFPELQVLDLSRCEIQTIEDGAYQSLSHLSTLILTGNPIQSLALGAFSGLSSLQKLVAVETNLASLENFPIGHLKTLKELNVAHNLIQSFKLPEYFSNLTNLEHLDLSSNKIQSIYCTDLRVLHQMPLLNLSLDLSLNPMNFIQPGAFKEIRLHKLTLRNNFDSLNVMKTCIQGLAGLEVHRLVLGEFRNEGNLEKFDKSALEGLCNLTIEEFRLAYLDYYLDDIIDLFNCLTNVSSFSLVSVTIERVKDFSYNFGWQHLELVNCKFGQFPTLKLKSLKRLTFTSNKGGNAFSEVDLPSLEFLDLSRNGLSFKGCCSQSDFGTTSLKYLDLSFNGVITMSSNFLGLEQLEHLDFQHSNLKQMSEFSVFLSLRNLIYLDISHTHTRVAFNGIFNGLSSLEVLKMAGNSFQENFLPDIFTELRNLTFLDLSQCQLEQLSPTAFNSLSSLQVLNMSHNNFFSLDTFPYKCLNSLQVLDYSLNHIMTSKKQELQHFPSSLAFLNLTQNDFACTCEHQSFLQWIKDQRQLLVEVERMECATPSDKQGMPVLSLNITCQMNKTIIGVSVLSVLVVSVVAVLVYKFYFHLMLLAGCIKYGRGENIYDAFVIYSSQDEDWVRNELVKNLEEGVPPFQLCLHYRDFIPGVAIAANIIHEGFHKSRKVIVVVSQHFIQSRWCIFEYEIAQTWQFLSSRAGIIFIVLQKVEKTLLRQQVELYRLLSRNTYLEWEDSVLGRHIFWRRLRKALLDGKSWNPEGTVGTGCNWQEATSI

For orientation: Kd means a measure of binding affinity in units of concentration. A higher Kd goes with lower affinity. As for `CC(C)=CCC[C@](C)(O)[C@H]1CC[C@]2(C)[C@@H]1[C@H](O)C[C@@H]1[C@@]3(C)CC[C@H](O[C@@H]4O[C@H](CO)[C@@H](O)[C@H](O)[C@H]4O)C(C)(C)[C@@H]3CC[C@]12C` [G-Rh2, Ginsenoside Rh2], the Kd amounted to 71.2 µM.

These data come from article PMC11395244, “Ginsenoside Rh2 Alleviates LPS-Induced Inflammatory Responses by Binding to TLR4/MD-2 and Blocking TLR4 Dimerization” (International Journal of Molecular Sciences, 2024).
